Data reported in US7507860B2 (Pfizer Inc., priority 2004, dated 2009).
Numbering of substitutions follows the chain as printed. Like-named read-outs stand apart in the source and are kept apart here.

What was measured:
[1] = target: T1, human androgen receptor (hAR) (Homo sapiens, UniProt P10275); test: Competitive binding analysis on baculovirus/Sf9 generated hAR extracts with 3H-DHT tracer; conditions: hAR extract, 1 nM 3H-DHT, one hour at 4° C, mean of multiple tests
T1 construct: made in house; host or cells: baculovirus/Sf9 insect cells (crude extract)
T1 sequence (P10275 1-920): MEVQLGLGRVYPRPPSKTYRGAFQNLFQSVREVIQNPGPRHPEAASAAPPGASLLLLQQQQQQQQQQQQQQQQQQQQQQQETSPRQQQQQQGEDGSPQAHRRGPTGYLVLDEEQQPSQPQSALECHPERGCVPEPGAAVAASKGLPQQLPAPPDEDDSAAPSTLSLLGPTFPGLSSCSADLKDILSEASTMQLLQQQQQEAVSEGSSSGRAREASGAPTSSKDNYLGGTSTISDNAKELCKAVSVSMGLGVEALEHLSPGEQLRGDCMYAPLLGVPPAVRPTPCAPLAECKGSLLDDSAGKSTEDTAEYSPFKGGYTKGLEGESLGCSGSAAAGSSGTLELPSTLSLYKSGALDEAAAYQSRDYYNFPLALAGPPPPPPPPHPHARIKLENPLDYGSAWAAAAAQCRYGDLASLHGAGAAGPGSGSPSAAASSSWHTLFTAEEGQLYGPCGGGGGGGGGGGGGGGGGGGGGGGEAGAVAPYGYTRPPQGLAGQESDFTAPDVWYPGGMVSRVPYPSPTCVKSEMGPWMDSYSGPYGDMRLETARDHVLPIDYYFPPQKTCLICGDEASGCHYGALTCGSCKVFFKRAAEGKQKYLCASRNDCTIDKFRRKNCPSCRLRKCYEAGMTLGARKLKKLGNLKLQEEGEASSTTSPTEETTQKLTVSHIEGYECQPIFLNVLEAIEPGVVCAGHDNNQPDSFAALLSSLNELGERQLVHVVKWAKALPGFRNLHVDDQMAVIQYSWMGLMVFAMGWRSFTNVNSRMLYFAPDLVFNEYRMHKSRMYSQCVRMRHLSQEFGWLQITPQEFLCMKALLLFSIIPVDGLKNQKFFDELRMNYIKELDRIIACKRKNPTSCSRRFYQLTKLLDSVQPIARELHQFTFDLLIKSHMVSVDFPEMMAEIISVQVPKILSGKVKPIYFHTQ
Method: The compounds of Formula I have affinity for the androgen receptor. […] The description below describes how the assay was carried out.
Competitive binding analysis was performed on baculovirus/Sf9 generated hAR extracts in the presence or absence of different concentrations of test agent and a fixed concentration of ^3H-dihydrotestosterone (^3H-DHT) as tracer. This binding assay method is a modification of a protocol previously described (Liao S., et. al. J. Steroid Biochem. 20:11-17 1984). Briefly, progressively decreasing concentrations of compounds are incubated in the presence of hAR extract (Chang et al. P.N.A.S. Vol. 89, pp. […], 1992), hydroxylapatite, and 1 nM^3H-DHT for one hour at 4° C. Subsequently, the binding reactions are washed three times to completely remove excess unbound ^3H-DHT. hAR bound ^3H-DHT levels are determined in the presence of compounds (=i.e competitive binding) and compared to levels bound when no competitor is present (=i.e. maximum binding). Compound binding affinity to the hAR is expressed as the concentration of compound at which one half of the maximum binding is inhibited. Table II below provides the results that were obtained for selected compounds (reported data is the mean of multiple tests as shown below)

androgen receptor = target: T2, androgen receptor (Homo sapiens, UniProt P10275); test: AR antagonist cell assay (MDA-MB453-MMTV clone 54-19 luciferase reporter, 100 pM DHT); assay type: cell-based; conditions: MDA-MB453-MMTV clone 54-19, inhibition of 100 pM DHT induction, 17 hr; mean of multiple tests; read-out: AR Cell IC50
T2 sequence (P10275 1-920 Q868H): T1 sequence (P10275 1-920) with Q868H
Method: The compounds ability to antagonize the effects of androgen on the androgen receptor were determined in a whole cell assay as described immediately below.
Experimental Procedure for AR Antagonist Cell Assay
This cell line is a stable transfected cell line with MDA-MB453 cell background (a human breast tumor cell line expressing androgen receptor). A MMTV minimal promoter containing ARE was first cloned in front of a firefly luciferase reporter gene. Then the cascade was cloned into transfection vector pUV120puro. […] Puromycin resistant stable cell line was selected. Cell Culture Media and Reagents:
Plating medium: DMEM (phenol red free), 10% charcoal treated HyClone serum, 1% L-glutamine
Assay medium: DMEM (phenol red free), 1% charcoal treated HyClone serum, 1% L-glutamine, and 1% penicillin/streptomycin
• 1. Cells are maintained in culture medium, splitting cells when they reach 80-90% confluence • 2. To test compounds, 10,000 cells/well are plated to opaque 96 cell culture plate in 100 ul/well plating medium, culture for overnight at 37° C. in cell culture incubator • 3. […] Add 10 ul/well freshly prepared DHT (final concentration at 100 pM) to each well, incubate at 37° C. for 17 hr (overnight) • 5.
The results are reported as the mean of multiple tests as described below (the numbers of tests are indicated in the footnote). N.D. denotes that the compound was not tested.

CCCC(Oc1ccc(C#N)c(C(F)(F)F)c1)C(=O)NCC(C)Oc1ccccc1 (stereo not shown) [Example 55, 2-(4-Cyano-3-trifluoromethyl-phenoxy)-pentanoic acid-(2-phenoxy-propyl)-amide]
IC50 ([1]; read-out: AR Binding IC50): 182 nM | IC50 (androgen receptor): 393 nM

COc1ccc(CCNC(=O)C(CC(C)C)Oc2ccc(C#N)c(C(F)(F)F)c2)cc1 (stereo not shown) [Example 34, 2-(4-Cyano-3-trifluoromethyl-phenoxy)-4-methyl-pentanoic acid [2-(4-methoxyphenyl)-ethyl]amide]
IC50 ([1]; read-out: AR Binding IC50): 68 nM | IC50 (androgen receptor): > 1000 nM

CCC[C@H](Oc1ccc(C#N)c(Cl)c1)C(=O)NCCc1c[nH]c2ccccc12 [Example 106, (S)-2-(3-Chloro-4-cyano-phenoxy)-pentanoic acid [2-(1H-indol-3-yl)-ethyl]-amide]
IC50 ([1]; read-out: AR Binding IC50): 47 nM | IC50 (androgen receptor): 3 nM

CC(C)CC(Oc1ccc(C#N)c(C(F)(F)F)c1)C(=O)NCc1cccs1 (stereo not shown) [Example 12, 2-(4-Cyano-3-trifluoromethyl-phenoxy)-4-methyl-pentanoic acid (thiophen-2-yl-methyl)-amide]
IC50 ([1]; read-out: AR Binding IC50): 86 nM | IC50 (androgen receptor): > 1000 nM

CCCC(Oc1ccc(C#N)c(C(F)(F)F)c1)C(=O)NCc1ccc2c(c1)CCO2 (stereo not shown) [Example 30, 2-(4-Cyano-3-trifluoromethyl-phenoxy)-pentanoic acid (2,3-dihydro-benzofuran-5-yl-methyl)-amide]
IC50 ([1]; read-out: AR Binding IC50): 134 nM | IC50 (androgen receptor): 355 nM

CCCC(Oc1ccc(C#N)c(C(F)(F)F)c1)C(=O)NCc1ccccc1C (stereo not shown) [Example 44, 2-(4-Cyano-3-trifluoromethyl-phenoxy)-pentanoic acid-2-methyl-benzylamide]
IC50 ([1]; AR Binding IC50 (nM)): 42 nM | IC50 (androgen receptor): 37 nM

CCCC(Oc1ccc(C#N)c(C(F)(F)F)c1)C(=O)N[C@H](C)c1ccc(O)cc1 (stereo in doubt) [Example 119, 2-(4-Cyano-3-trifluoromethyl-phenoxy)-pentanoic acid [1-(4-hydroxy-phenyl)-ethyl]-amide]
IC50 ([1]; read-out: AR Binding IC50): 86 nM | IC50 (androgen receptor): 117 nM

Cc1c(O)cccc1NC(=O)C(CC(C)C)Oc1ccc(C#N)c(C(F)(F)F)c1 (stereo not shown) [Example 84, 2-(4-Cyano-3-trifluoromethyl-phenoxy)-4-methyl-pentanoic acid (3-hydroxy-2-methyl-phenyl)-amide]
IC50 ([1]; read-out: AR Binding IC50): 112 nM | IC50 (androgen receptor): > 1000 nM

COc1cccc(CNC(=O)C(CC(C)C)Oc2ccc(C#N)c(C(F)(F)F)c2)c1 (stereo not shown) [Example 33, 2-(4-Cyano-3-trifluoromethyl-phenoxy)-4-methyl-pentanoic acid-3-methoxy-benzylamide]
IC50 ([1]; read-out: AR Binding IC50): 62 nM | IC50 (androgen receptor): 864 nM

Cc1ccc(NC(=O)C(CC(C)C)Oc2ccc(C#N)c(C(F)(F)F)c2)cc1O (stereo not shown) [Example 78, 2-(4-Cyano-3-trifluoromethyl-phenoxy)-4-methyl-pentanoic acid (3-hydroxy-4-methyl-phenyl)-amide]
IC50 ([1]; read-out: AR Binding IC50): 121 nM | IC50 (androgen receptor): 948 nM

COc1ccc(CNC(=O)C(CC(C)C)Oc2ccc(C#N)c(C(F)(F)F)c2)cn1 (stereo not shown) [Example 72, 2-(4-Cyano-3-trifluoromethyl-phenoxy)-4-methyl-pentanoic acid-(6-methoxy-pyridin-3-yl-methyl)-amide]
IC50 ([1]; read-out: AR Binding IC50): 82 nM | IC50 (androgen receptor): 251 nM

CCC(COC)NC(=O)C(CC(C)C)Oc1ccc(C#N)c(C(F)(F)F)c1 (stereo not shown) [Example 82, 2-(4-Cyano-3-trifluoromethyl-phenoxy)-4-methyl-pentanoic acid (1-methoxymethyl-propyl)-amide]
IC50 ([1]; read-out: AR Binding IC50): 218 nM | IC50 (androgen receptor): > 1000 nM

CC(C)CC(Oc1ccc(C#N)c(C(F)(F)F)c1)C(=O)NC(C)c1cccs1 (stereo not shown) [Example 13, 2-(4-Cyano-3-trifluoromethyl-phenoxy)-4-methyl-pentanoic acid (1-thiophen-2-ylethyl)-amide]
IC50 ([1]; read-out: AR Binding IC50): 240 nM | IC50 (androgen receptor): 398 nM

Cc1ccc(CCNC(=O)C(CC(C)C)Oc2ccc(C#N)c(C(F)(F)F)c2)cc1 (stereo not shown) [Example 47, 2-(4-Cyano-3-trifluoromethyl-phenoxy)-4-methyl-pentanoic acid-(2-p-tolyl-ethyl)amide]
IC50 ([1]; read-out: AR Binding IC50): 144 nM | IC50 (androgen receptor): > 1000 nM

CCCC(Oc1ccc(C#N)c(C(F)(F)F)c1)C(=O)NCCc1c[nH]c2ccccc12 (stereo not shown) [Example 65, 2-(4-Cyano-3-trifluoromethyl-phenoxy)-pentanoic acid [2-(1H-indol-3-yl)ethyl]amide]
IC50 ([1]; read-out: AR Binding IC50): 33 nM | IC50 (androgen receptor): 64 nM

CCCC(Oc1ccc(C#N)c(C(F)(F)F)c1)C(=O)NCc1cccc(C)c1 (stereo not shown) [Example 43, 2-(4-Cyano-3-trifluoromethyl-phenoxy)-pentanoic acid-3-methyl-benzylamide]
IC50 ([1]; read-out: AR Binding IC50): 99 nM | IC50 (androgen receptor): 105 nM

COc1cccc(CCNC(=O)C(CC(C)C)Oc2ccc(C#N)c(C(F)(F)F)c2)c1 (stereo not shown) [Example 58, 2-(4-Cyano-3-trifluoromethyl-phenoxy)-4-methyl-pentanoic acid-[2-(3-methoxyphenyl)-ethyl]-amide]
IC50 ([1]; read-out: AR Binding IC50): 64 nM | IC50 (androgen receptor): > 1000 nM

CCCOCCNC(=O)C(CC(C)C)Oc1ccc(C#N)c(C(F)(F)F)c1 (stereo not shown) [Example 81, 2-(4-Cyano-3-trifluoromethyl-phenoxy)-4-methyl-pentanoic acid (2-propoxy-ethyl)amide]
IC50 ([1]; read-out: AR Binding IC50): 142 nM | IC50 (androgen receptor): > 1000 nM

CCC[C@H](Oc1ccc(C#N)c(C(F)(F)F)c1)C(=O)NCCc1ccc(O)cc1 [Example 109]
IC50 ([1]; read-out: AR Binding IC50): 251 nM | IC50 (androgen receptor): 58 nM

CC(C)CC(Oc1ccc(C#N)c(C(F)(F)F)c1)C(=O)NCCOc1ccccc1 (stereo not shown) [Example 10, 2-(4-Cyano-3-trifluoromethyl-phenoxy)-4-methyl-pentanoic acid (2-phenoxyethyl)-amide]
IC50 ([1]; read-out: AR Binding IC50): 91 nM | IC50 (androgen receptor): > 1000 nM
